In the NIST ThermoML archive (doi:10.1016/j.tca.2013.08.007):

Experiment: mn = molality of the nth substance listed, in mol/kg
Settings: 101 kPa, Liquid, Vibrating tube method

[Cl-].[Na+] [sodium chloride] + O
mass density [kg/m3]
Settings	m1 = 0.2	m1 = 0.4	m1 = 0.6	m1 = 0.8	m1 = 1	m1 = 1.5
288.15 K	1007.43	1015.66	1023.65	1031.47	1039.16	1058.09
298.15 K	1005.16	1013.14	1020.96	1028.64	1036.19	1054.58
308.15 K	1002.07	1009.91	1017.59	1025.13	–	1050.69
318.15 K	998.17	1005.91	–	1020.82	1028.35	1046.38
